Test results taken from the CheMixHub viscosity set.
Several values for one entry are separate records, joined by “and”; a condition that tells them apart may be missing. Equal values may be shown once.

Experiment: xn = mol fraction of the nth substance listed

Cc1ncc(CO)c(CO)c1O.Cl + O
101 kPa
Settings	viscosity
293.15 K, x1 = 0.001798	1.047 mPa·s
293.15 K, x1 = 0.0018	1.047 mPa·s
298.15 K, x1 = 0.00081	0.9087 mPa·s
298.15 K, x1 = 0.000909	0.918 mPa·s
298.15 K, x1 = 0.001809	0.95 mPa·s
298.15 K, x1 = 0.002028	0.9328 mPa·s
298.15 K, x1 = 0.002489	0.9415 mPa·s
298.15 K, x1 = 0.002657	0.96 mPa·s
298.15 K, x1 = 0.003638	0.99 mPa·s
298.15 K, x1 = 0.003926	0.9708 mPa·s
298.15 K, x1 = 0.004487	1.007 mPa·s
298.15 K, x1 = 0.004756	0.9841 mPa·s
298.15 K, x1 = 0.005406	1.027 mPa·s
298.15 K, x1 = 0.006266	1.04 mPa·s
298.15 K, x1 = 0.006666	1.03 mPa·s
298.15 K, x1 = 0.007307	1.06 mPa·s
298.15 K, x1 = 0.00813	1.073 mPa·s
298.15 K, x1 = 0.008945	1.084 mPa·s
298.15 K, x1 = 0.009813	1.108 mPa·s
303.15 K, x1 = 0.0018	0.832 mPa·s
303.15 K, x1 = 0.00359	0.8603 mPa·s and 0.8604 mPa·s
308.15 K, x1 = 0.002028	0.7519 mPa·s
308.15 K, x1 = 0.002489	0.7601 mPa·s
308.15 K, x1 = 0.003926	0.7829 mPa·s
308.15 K, x1 = 0.004756	0.7924 mPa·s
308.15 K, x1 = 0.006666	0.828 mPa·s
313.15 K, x1 = 0.001798	0.6798 mPa·s and 0.6802 mPa·s and 0.68 mPa·s
313.15 K, x1 = 0.00359	0.7025 mPa·s
313.15 K, x1 = 0.007154	0.7543 mPa·s and 0.7545 mPa·s
318.15 K, x1 = 0.002028	0.6236 mPa·s
318.15 K, x1 = 0.002489	0.6303 mPa·s
318.15 K, x1 = 0.003926	0.649 mPa·s
318.15 K, x1 = 0.004756	0.6605 mPa·s
318.15 K, x1 = 0.006666	0.6863 mPa·s
323.15 K, x1 = 0.001798	0.5675 mPa·s
323.15 K, x1 = 0.0018	0.5673 mPa·s
323.15 K, x1 = 0.005375	0.6071 mPa·s and 0.6075 mPa·s and 0.6074 mPa·s

NC(CO)(CO)CO + O
Settings	viscosity [mPa·s]
298.15 K, 101 kPa, x1 = 0.001	0.91
298.15 K, 101 kPa, x1 = 0.01	1.03
298.15 K, 101 kPa, x1 = 0.022	1.18
298.15 K, 101 kPa, x1 = 0.034	1.46
298.15 K, 101 kPa, x1 = 0.055	1.97
303 K, 101 kPa, x1 = 0.06	2.19
303.15 K, 101 kPa, x1 = 0.001	0.79
303.15 K, 101 kPa, x1 = 0.01	0.91
303.15 K, 101 kPa, x1 = 0.022	1.05
303.15 K, 101 kPa, x1 = 0.034	1.28
303.15 K, 101 kPa, x1 = 0.055	1.77
303.15 K, 101.33 kPa, x1 = 0.008	0.905
303.15 K, 101.33 kPa, x1 = 0.02	1.042
303.15 K, 101.33 kPa, x1 = 0.04	1.475
303.15 K, 101.33 kPa, x1 = 0.047	1.789
308.15 K, 101 kPa, x1 = 0.001	0.69
308.15 K, 101 kPa, x1 = 0.01	0.79
308.15 K, 101 kPa, x1 = 0.022	0.94
308.15 K, 101 kPa, x1 = 0.034	1.14
308.15 K, 101 kPa, x1 = 0.055	1.54
313 K, 101 kPa, x1 = 0.06	1.68
313.15 K, 101 kPa, x1 = 0.001	0.62
313.15 K, 101 kPa, x1 = 0.01	0.71
313.15 K, 101 kPa, x1 = 0.022	0.85
313.15 K, 101 kPa, x1 = 0.034	1.03
313.15 K, 101 kPa, x1 = 0.055	1.37
313.15 K, 101.33 kPa, x1 = 0.008	0.738
313.15 K, 101.33 kPa, x1 = 0.02	0.846
313.15 K, 101.33 kPa, x1 = 0.026	0.981
313.15 K, 101.33 kPa, x1 = 0.047	1.399
318.15 K, 101 kPa, x1 = 0.001	0.58
318.15 K, 101 kPa, x1 = 0.01	0.65
318.15 K, 101 kPa, x1 = 0.022	0.77
318.15 K, 101 kPa, x1 = 0.034	0.93
318.15 K, 101 kPa, x1 = 0.055	1.22
323 K, 101 kPa, x1 = 0.06	1.32
323.15 K, 101 kPa, x1 = 0.001	0.52
323.15 K, 101 kPa, x1 = 0.022	0.71
323.15 K, 101 kPa, x1 = 0.034	0.84
323.15 K, 101 kPa, x1 = 0.055	1.11
323.15 K, 101.33 kPa, x1 = 0.008	0.616
323.15 K, 101.33 kPa, x1 = 0.02	0.705
323.15 K, 101.33 kPa, x1 = 0.026	0.811
323.15 K, 101.33 kPa, x1 = 0.04	0.962
323.15 K, 101.33 kPa, x1 = 0.047	1.129

O=P([O-])([O-])O.[Na+].[Na+] + O
viscosity [mPa·s]
Settings	293.15 K	298.15 K	303.15 K	308.15 K
100 kPa, x1 = 0.01115	–	1.215	1.095	–
100 kPa, x1 = 0.01333	1.455	–	–	–
100 kPa, x1 = 0.01698	–	–	–	1.175
101 kPa, x1 = 0.0018	–	0.948	0.8587	0.7663
101 kPa, x1 = 0.0054	–	1.05	0.968	0.8559
101 kPa, x1 = 0.0089	–	1.232	1.076	0.94
101 kPa, x1 = 0.012	–	1.441	1.228	1.152
101 kPa, x1 = 0.016	–	1.727	1.536	1.452

OCCOCCOCCOCCOCCOCCO + O
viscosity [mPa·s], 100 kPa
Settings	293.15 K	298.15 K	303.15 K	308.15 K	313.15 K	318.15 K	323.15 K
x2 = 0.086	84.1	63.85	49.38	39.16	31.47	25.71	21.3
x2 = 0.154	83.43	63.21	48.95	38.71	31.12	25.38	21.01
x2 = 0.191	79.58	61.16	47.41	37.44	30.09	24.56	20.43
x2 = 0.222	81.84	62.01	47.77	37.78	30.44	24.83	20.66

OC[C@H]1O[C@H](O[C@H]2O[C@H](CO)[C@@H](O)[C@H](O)[C@H]2O)[C@H](O)[C@@H](O)[C@@H]1O + O
298.15 K, 101 kPa
Settings	viscosity [mPa·s]
x1 = 0.0009	0.935
x1 = 0.001798	0.982
x1 = 0.002695	1.032
x1 = 0.00359	1.084
x1 = 0.004484	1.139
x1 = 0.005375	1.197

O[C@H]1[C@H](O)[C@@H](O)[C@H](O)[C@@H](O)[C@H]1O + O
viscosity
Settings	x1 = 0.0018	x1 = 0.002	x1 = 0.00359	x1 = 0.004	x1 = 0.005	x1 = 0.00538	x1 = 0.00715	x1 = 0.00893
293.15 K, 101 kPa	1.051 mPa·s	–	1.102 mPa·s	–	–	1.154 mPa·s	1.23 mPa·s	1.281 mPa·s
293.15 K, 101.3 kPa	–	1.035 mPa·s	–	1.086 mPa·s	1.138 mPa·s	–	–	–
298.15 K, 101.3 kPa	–	0.945 mPa·s	–	0.986 mPa·s	1.006 mPa·s	–	–	–
303.15 K, 101 kPa	0.836 mPa·s	–	0.875 mPa·s	–	–	0.911 mPa·s	0.97 mPa·s	1.001 mPa·s and 1.011 mPa·s
303.15 K, 101.3 kPa	–	0.821 mPa·s	–	0.861 mPa·s	0.899 mPa·s	–	–	–
313.15 K, 101 kPa	0.685 mPa·s	–	0.728 mPa·s	–	–	0.742 mPa·s	0.789 mPa·s	0.82 mPa·s
323.15 K, 101 kPa	0.577 mPa·s	–	0.601 mPa·s	–	–	0.618 mPa·s	0.658 mPa·s	0.684 mPa·s
